Laboratory results published in ChEMBL document CHEMBL3885861, “Open TG-GATES”.

Species: Rattus norvegicus
Assay: Open TG-GATES - Regimen: Daily Repeat
Type: toxicity, organism-based, Sprague-Dawley
Design: regimen Daily Repeat, gender Male, age 6 weeks
Settings: in vivo, po, route gavage; for APTT / Bas / Eos / Fbg / Hb / Ht / Lym / MCH / MCHC / MCV / Mono / Neu / PT / Plat / RBC / Ret / WBC: tissue Blood; for KIDNEY_L / KIDNEY_R / KIDNEY_TOTAL: tissue Kidney; for LIVER: tissue Liver; for A/G / ALP / ALT / AST / BUN / CRE / Ca / Cl / DBIL / GLC / IP / K / LDH / Na / PL / RALB / TBIL / TC / TG / TP / gamma-GTP: tissue Plasma
[1] = 200 mg/kg, 72 h, dose level Middle, time 3 day
[2] = 200 mg/kg, […], dose level Middle, time 7 day
[3] = 200 mg/kg, […], dose level Middle, time 14 day
[4] = 200 mg/kg, […], dose level Middle, time 28 day
[5] = 600 mg/kg, 72 h, dose level High, time 3 day
[6] = 600 mg/kg, […], dose level High, time 7 day
[7] = 600 mg/kg, […], dose level High, time 14 day
[8] = 600 mg/kg, […], dose level High, time 28 day

## C[C@](N)(Cc1ccc(O)c(O)c1)C(=O)O [METHYLDOPA]
[1]
  TERMINAL_BW: 196.2 g
  APTT: 15.9 s
  Bas: 0%
  Eos: 0.8%
  Fbg: 292.8 mg/dL
  Hb: 13.8 g/dL
  Ht: 40.6%
  Lym: 79.4%
  MCH: 22.1 pg
  MCHC: 34%
  MCV: 65 fL
  Mono: 2.6%
  Neu: 16.4%
  PT: 12.7 s
  Plat: 107.2 x10_4/uL
  RBC: 626 x10_4/ul
  Ret: 7.2%
  WBC: 59.1 x10_2/uL
  KIDNEY_L: 0.9 g
  KIDNEY_R: 0.9 g
  KIDNEY_TOTAL: 1.9 g
  LIVER: 8.5 g
  A/G: 0.9
  ALP: 1722.4 IU/L
  ALT: 53.4 IU/L
  AST: 73 IU/L
  BUN: 16.6 mg/dL
  CRE: 0.2 mg/dL
  Ca: 11.2 mg/dL
  Cl: 105.8 meq/L
  DBIL: 0.008 mg/dL
  GLC: 174 mg/dL
  IP: 8.4 mg/dL
  K: 4.5 meq/L
  LDH: 71.4 IU/L
  Na: 145.8 meq/L
  PL: 144 mg/dL
  RALB: 2.7 g/dL
  TBIL: 0.062 mg/dL
  TC: 97 mg/dL
  TG: 34 mg/dL
  TP: 5.8 g/dL
  gamma-GTP: 1 IU/L
[2]
  TERMINAL_BW: 218.2 g
  APTT: 17.4 s
  Bas: 0%
  Eos: 1%
  Fbg: 269.4 mg/dL
  Hb: 14.1 g/dL
  Ht: 40.6%
  Lym: 78.8%
  MCH: 21.5 pg
  MCHC: 34.7%
  MCV: 61.9 fL
  Mono: 3.6%
  Neu: 16.2%
  PT: 12.2 s
  Plat: 122.9 x10_4/uL
  RBC: 656.4 x10_4/ul
  Ret: 4.5%
  WBC: 71.2 x10_2/uL
  KIDNEY_L: 0.9 g
  KIDNEY_R: 0.9 g
  KIDNEY_TOTAL: 1.9 g
  LIVER: 8.8 g
  A/G: 0.9
  ALP: 1381.2 IU/L
  ALT: 45.4 IU/L
  AST: 67.8 IU/L
  BUN: 14.2 mg/dL
  CRE: 0.2 mg/dL
  Ca: 10.8 mg/dL
  Cl: 107.4 meq/L
  DBIL: 0.01 mg/dL
  GLC: 179.8 mg/dL
  IP: 7.7 mg/dL
  K: 4.3 meq/L
  LDH: 54.2 IU/L
  Na: 143.4 meq/L
  PL: 132.4 mg/dL
  RALB: 2.7 g/dL
  TBIL: 0.068 mg/dL
  TC: 84.2 mg/dL
  TG: 36.2 mg/dL
  TP: 5.7 g/dL
  gamma-GTP: 0.8 IU/L
[3]
  TERMINAL_BW: 271 g
  APTT: 16.1 s
  Bas: 0%
  Eos: 1%
  Fbg: 278.2 mg/dL
  Hb: 13.8 g/dL
  Ht: 39.5%
  Lym: 80.6%
  MCH: 20.9 pg
  MCHC: 34.9%
  MCV: 59.9 fL
  Mono: 1.8%
  Neu: 16.2%
  PT: 14.2 s
  Plat: 111.8 x10_4/uL
  RBC: 659.4 x10_4/ul
  Ret: 4.9%
  WBC: 82.5 x10_2/uL
  KIDNEY_L: 1.1 g
  KIDNEY_R: 1 g
  KIDNEY_TOTAL: 2.1 g
  LIVER: 10.2 g
  A/G: 0.8
  ALP: 1316.6 IU/L
  ALT: 42.2 IU/L
  AST: 61.8 IU/L
  BUN: 12.6 mg/dL
  CRE: 0.2 mg/dL
  Ca: 11 mg/dL
  Cl: 105.2 meq/L
  DBIL: 0.002 mg/dL
  GLC: 182.2 mg/dL
  IP: 7.1 mg/dL
  K: 4.4 meq/L
  LDH: 58 IU/L
  Na: 141.6 meq/L
  PL: 137 mg/dL
  RALB: 2.6 g/dL
  TBIL: 0.054 mg/dL
  TC: 87.6 mg/dL
  TG: 35.2 mg/dL
  TP: 5.7 g/dL
  gamma-GTP: 0.8 IU/L
[4]
  TERMINAL_BW: 346.4 g
  APTT: 17.8 s
  Bas: 0%
  Eos: 1.2%
  Fbg: 280 mg/dL
  Hb: 15.1 g/dL
  Ht: 43%
  Lym: 81.2%
  MCH: 19.8 pg
  MCHC: 35.1%
  MCV: 56.5 fL
  Mono: 1.4%
  Neu: 15.6%
  PT: 14 s
  Plat: 101.7 x10_4/uL
  RBC: 760.8 x10_4/ul
  Ret: 2.3%
  WBC: 76.9 x10_2/uL
  KIDNEY_L: 1.2 g
  KIDNEY_R: 1.2 g
  KIDNEY_TOTAL: 2.4 g
  LIVER: 12.9 g
  A/G: 0.8
  ALP: 1006.8 IU/L
  ALT: 39.8 IU/L
  AST: 55.4 IU/L
  BUN: 13.2 mg/dL
  CRE: 0.2 mg/dL
  Ca: 10.7 mg/dL
  Cl: 104.8 meq/L
  DBIL: 0.018 mg/dL
  GLC: 182.2 mg/dL
  IP: 6.4 mg/dL
  K: 4 meq/L
  LDH: 39.8 IU/L
  Na: 142.8 meq/L
  PL: 144.6 mg/dL
  RALB: 2.7 g/dL
  TBIL: 0.052 mg/dL
  TC: 89.2 mg/dL
  TG: 50.8 mg/dL
  TP: 6.1 g/dL
  gamma-GTP: 1.2 IU/L
[5]
  TERMINAL_BW: 188.1 g
  APTT: 17.3 s
  Bas: 0%
  Eos: 1.2%
  Fbg: 240 mg/dL
  Hb: 14.2 g/dL
  Ht: 41.8%
  Lym: 83.2%
  MCH: 21.4 pg
  MCHC: 34%
  MCV: 62.9 fL
  Mono: 2.4%
  Neu: 12.6%
  PT: 12.8 s
  Plat: 108 x10_4/uL
  RBC: 665.2 x10_4/ul
  Ret: 4.2%
  WBC: 54.3 x10_2/uL
  KIDNEY_L: 0.9 g
  KIDNEY_R: 0.9 g
  KIDNEY_TOTAL: 1.7 g
  LIVER: 8.1 g
  A/G: 0.8
  ALP: 1746 IU/L
  ALT: 54.4 IU/L
  AST: 74 IU/L
  BUN: 18.2 mg/dL
  CRE: 0.2 mg/dL
  Ca: 10.9 mg/dL
  Cl: 106.6 meq/L
  DBIL: 0.01 mg/dL
  GLC: 167.2 mg/dL
  IP: 7.8 mg/dL
  K: 4.1 meq/L
  LDH: 72.2 IU/L
  Na: 146.2 meq/L
  PL: 153 mg/dL
  RALB: 2.6 g/dL
  TBIL: 0.054 mg/dL
  TC: 95.6 mg/dL
  TG: 37.2 mg/dL
  TP: 5.5 g/dL
  gamma-GTP: 1 IU/L
[6]
  TERMINAL_BW: 207.4 g
  APTT: 16.1 s
  Bas: 0%
  Eos: 1.2%
  Fbg: 259 mg/dL
  Hb: 14.4 g/dL
  Ht: 42.1%
  Lym: 81.6%
  MCH: 20.5 pg
  MCHC: 34.2%
  MCV: 60 fL
  Mono: 2.8%
  Neu: 14.4%
  PT: 12.2 s
  Plat: 106.1 x10_4/uL
  RBC: 702 x10_4/ul
  Ret: 3.6%
  WBC: 67.6 x10_2/uL
  KIDNEY_L: 0.9 g
  KIDNEY_R: 0.9 g
  KIDNEY_TOTAL: 1.8 g
  LIVER: 8.1 g
  A/G: 0.9
  ALP: 1646.8 IU/L
  ALT: 51 IU/L
  AST: 88.4 IU/L
  BUN: 14.6 mg/dL
  CRE: 0.2 mg/dL
  Ca: 10.9 mg/dL
  Cl: 107.6 meq/L
  DBIL: 0.008 mg/dL
  GLC: 179.2 mg/dL
  IP: 7.8 mg/dL
  K: 4.4 meq/L
  LDH: 66.4 IU/L
  Na: 146 meq/L
  PL: 133.2 mg/dL
  RALB: 2.7 g/dL
  TBIL: 0.064 mg/dL
  TC: 87.4 mg/dL
  TG: 26 mg/dL
  TP: 5.7 g/dL
  gamma-GTP: 1.2 IU/L
[7]
  TERMINAL_BW: 241.7 g
  APTT: 16.5 s
  Bas: 0%
  Eos: 0.8%
  Fbg: 277 mg/dL
  Hb: 14.2 g/dL
  Ht: 40.9%
  Lym: 83.8%
  MCH: 21.1 pg
  MCHC: 34.7%
  MCV: 60.8 fL
  Mono: 1.8%
  Neu: 13%
  PT: 14.2 s
  Plat: 111.5 x10_4/uL
  RBC: 673.2 x10_4/ul
  Ret: 4.6%
  WBC: 86.9 x10_2/uL
  KIDNEY_L: 1 g
  KIDNEY_R: 1 g
  KIDNEY_TOTAL: 2 g
  LIVER: 9.1 g
  A/G: 0.8
  ALP: 1330.4 IU/L
  ALT: 43.8 IU/L
  AST: 65 IU/L
  BUN: 12.2 mg/dL
  CRE: 0.2 mg/dL
  Ca: 11.2 mg/dL
  Cl: 105.4 meq/L
  DBIL: 0.002 mg/dL
  GLC: 179.6 mg/dL
  IP: 7.9 mg/dL
  K: 4.7 meq/L
  LDH: 53.4 IU/L
  Na: 143 meq/L
  PL: 139.4 mg/dL
  RALB: 2.7 g/dL
  TBIL: 0.054 mg/dL
  TC: 91 mg/dL
  TG: 26.4 mg/dL
  TP: 5.8 g/dL
  gamma-GTP: 1 IU/L
[8]
  TERMINAL_BW: 321.4 g
  APTT: 16.8 s
  Bas: 0%
  Eos: 1.2%
  Fbg: 300.8 mg/dL
  Hb: 14.9 g/dL
  Ht: 43.2%
  Lym: 75.4%
  MCH: 19.7 pg
  MCHC: 34.5%
  MCV: 57.2 fL
  Mono: 2%
  Neu: 21.2%
  PT: 14.1 s
  Plat: 101.5 x10_4/uL
  RBC: 756.4 x10_4/ul
  Ret: 2.4%
  WBC: 68.4 x10_2/uL
  KIDNEY_L: 1.2 g
  KIDNEY_R: 1.2 g
  KIDNEY_TOTAL: 2.5 g
  LIVER: 11.7 g
  A/G: 0.8
  ALP: 1178.8 IU/L
  ALT: 40 IU/L
  AST: 56.8 IU/L
  BUN: 13 mg/dL
  CRE: 0.2 mg/dL
  Ca: 11 mg/dL
  Cl: 104.4 meq/L
  DBIL: 0.016 mg/dL
  GLC: 177.2 mg/dL
  IP: 7.4 mg/dL
  K: 4.3 meq/L
  LDH: 39.2 IU/L
  Na: 144.8 meq/L
  PL: 140.6 mg/dL
  RALB: 2.7 g/dL
  TBIL: 0.062 mg/dL
  TC: 84.4 mg/dL
  TG: 37.6 mg/dL
  TP: 6 g/dL
  gamma-GTP: 1 IU/L
